Test results: ChEMBL document CHEMBL4840374, “Cytochalasin Derivatives from the Endozoic Curvularia verruculosa CS-129, a Fungus Isolated from the Deep-Sea Squat Lobster Shinkaia crosnieri Living in the Cold Seep Environment” (J Nat Prod, 2021); call rule not given here

Legend:
MCF7 = experiment: Cytotoxicity against human MCF7 cells assessed as reduction in cell viability after 72 hrs by MTT assay; assay type: functional, cell-based
Vibrio parahaemolyticus = experiment: Antibacterial activity against Vibrio parahaemolyticus QDIO-8 assessed as reduction in microbial growth by microtiter plate reader assay; assay type: functional
HepG2 = experiment: Cytotoxicity against human HepG2 cells assessed as reduction in cell viability after 72 hrs by MTT assay; assay type: functional, cell-based
HCT-116 = experiment: Cytotoxicity against human HCT-116 cells assessed as reduction in cell viability after 72 hrs by MTT assay; assay type: functional, cell-based
Edwardsiella tarda = experiment: Antibacterial activity against […] QDIO-10 assessed as reduction in microbial growth by microtiter plate reader assay; assay type: functional
Escherichia coli = experiment: Antibacterial activity against Escherichia coli EMBLC-1 assessed as reduction in microbial growth by microtiter plate reader assay; assay type: functional
[1] = Homo sapiens, MCF7, 72 h, read-out: IC50
[2] = Homo sapiens, HepG2, 72 h, read-out: IC50
[3] = Homo sapiens, HCT-116, 72 h, read-out: IC50

| SMILES | IC50 (MCF7; [1]) | IC50 (HepG2; [2]) | IC50 (HCT-116; [3]) | MIC (Edwardsiella tarda) | further results |
| --- | --- | --- | --- | --- | --- |
| C=C1[C@@H](C)[C@H]2[C@H](Cc3ccccc3)NC(=O)[C@]23OC(=O)/C=C/[C@H](O)CCC[C@@H](C)C/C=C/[C@H]3[C@@H]1O [CYTOCHALASIN B] | 5.2 µM | 9.5 µM | 12 µM |  | MIC (Vibrio parahaemolyticus): 4 µg/mL |
| C[C@H]1C/C=C/[C@H]2[C@@H]3O[C@]3(C)[C@@H](C)[C@H]3[C@H](Cc4ccccc4)NC(=O)[C@]32OC(=O)/C=C/[C@H](O)CCC1 |  |  |  | 8 µg/mL |  |
| C=C1[C@@H](C)[C@H]2[C@H](Cc3ccccc3)NC(=O)[C@]23OC(=O)/C=C/CCCC[C@@H](C)C/C=C/[C@H]3[C@@H]1O |  |  |  |  | IC50 (MCF7; mcf7): Not Active; IC50 (HepG2; hepg2): Not Active; IC50 (HCT-116; hct-116): Not Active |
| C=C1[C@@H](C)[C@H]2[C@H](Cc3ccccc3)NC(=O)[C@]23OC(=O)[C@@H](S[C@H]2CC(=O)CCC[C@@H](C)C/C=C/[C@H]4[C@H](O)C(=C)[C@@H](C)[C@H]5[C@H](Cc6ccccc6)NC(=O)[C@]54OC2=O)CC(=O)CCC[C@@H](C)C/C=C/[C@H]3[C@@H]1O |  |  |  |  | MIC (Escherichia coli): 2 µg/mL |
| O=C(N[C@H](CO)[C@H](O)c1ccc([N+](=O)[O-])cc1)C(Cl)Cl [CHLORAMPHENICOL] |  |  |  | 0.5 µg/mL | MIC (Vibrio parahaemolyticus): 2 µg/mL |
| C=C1[C@@H](C)[C@H]2[C@H](Cc3ccccc3)NC(=O)[C@]23C(=O)/C=C/[C@H](O)CCC[C@@H](C)C/C=C/[C@H]3[C@@H]1O [DEOXAPHOMIN] | 7 µM | 7.1 µM | 7.6 µM |  |  |
| C=C1[C@@H](C)[C@H]2[C@H](Cc3ccccc3)NC(=O)[C@]23OC(=O)/C=C/[C@H](O)[C@H](O)CC[C@@H](C)C/C=C/[C@H]3[C@@H]1O | 6 µM | 6.4 µM | 9.5 µM | 8 µg/mL |  |
